# Conditions: rat, in vivo, po, 10 mg
# Protocol: The compound was dissolved in 5 ml of distilled water and then made up to 10 ml with distilled water to make a solution of 5 mg/ml concentration. For group 1 (G1), a dose volume of 2 ml formulation containing 10 mg of reference standard was administered to each rat irrespective of the body weight. Test formulation is as provided in example 5B. Test formulation was used as such as the formulation is in gel form for dermal application. 3 gm of the gel formulation containing 10 mg of test cynacobalamine is a test formulation.
# One day prior to the dermal application of test item formulation for group 2 (G2) rats, the hair from the back of each rat was removed using hair removal cream and washed with saline. On the day of experiment, the shaved area was wiped with 70% isopropyl alcohol and dried. […] Immediately after application, the area was covered with non-absorbable cotton and was secured with adhesive tape.
# Blood was collected through retro orbital plexus using capillary at specified time points i.e. 0.5 hr, 1.0 hr, 3.0 hr, 6.0 hr & 24.0 hrs post-dose. To collect the serum sample, the tubes were kept for 30 min. at room temperature and allowed for coagulation and then separated by centrifugation the tubes at 3000 rpm for 10 min at 4° C.
substance,measurement,value
Cynacobalamine [Oral],AUC (0-∞),2775.15 ng·h/mL
same,Cmax,205.67 ng/mL
same,Tmax,1 h
